The values below come from patent publication US6773727B1, “Use of gossypol and related terpenes for control of urban and agricultural pests” (The United States of America as represented by the …, priority 2001, dated 2004).

As a reminder, the mortality is the percentage killed.

Where two headings read alike, the source gives them in different places.

For data set [1], the system named is tobacco budworm (Heliothis virescens [F.]) larvae. To be noted: cited from earlier work; for effect on growth: at 2.5 μmoles/g diet; for effective dosage required to reduce by 50% the growth of larvae: larvae fed an artificial diet.
In data set [2] the test system is tobacco budworm larval growth. Conditions: in vivo; cited from earlier work.
The conditions of data set [3]: as recommended by manufacturers; pest not stated; cited from earlier work.
A further data set concerns roaches. Conditions: as recommended by manufacturers; cited from earlier work.
For a further data set, the system named is termites. The data set can be described thus: Termite lab colony bait matrix test (time to 100% mortality). Type of data set: in vivo, Formosan subterranean termite. How it is done:
Gossypol acetic acid complex, which is a commercially available pure chemical, is dissolved in 1 ml acetone (#9006-03; J. T. Baker, Phillipsburg, NJ) using a sterile container. In the pure form as gossypol acetic acid complex and at concentrations of 5 ppm, gossypol is effective when mixed with a chitin synthesis inhibitor of the benzophenyl urea family or microbes such as fungi, bacteria, or viruses, taking a mean time to kill the lab test of four months. At concentrations greater than 500 ppm, without the addition of any other chemical, gossypol acetic acid complex as an insecticide can kill the lab test colony after a mean duration of one month.
Gossypol-acetic acid complex obtained from USDA-ARS-SRCC, New Orleans, La., crude cotton seed oil [8ETX(5)], from a commercial oil mill, and a commercial cotton meal [6MTN 925 CSM] were separately incorporated into a bait matrix as described in U.S. patent application Ser. No. 09/294,499 filed Apr. 20, 1999, at concentrations of 50, 25, and 12.5 ppm respectively. […] A total of 40 mg of the gossypol acetic acid complex, 250 mg of the crude cotton seed oil, and 900 mg of the cotton seed meal were individually weighed using a Mettler balance (model PB303; Fisher Scientific, Pittsburgh, Pa.). The gossypol-acetic acid complex was placed into a 50 ml sterile screw cap conical tube (#62.547.004; Sarstedt, Newton, N.C.) and dissolved with 1 ml acetone (#9006-03; J. T. Baker, Phillipsburg, N.J.).
Under a laminar flow hood, the gossypol acetone solution was mixed with 40 ml of sterile nutritional supplement containing 150 ppm of chitin inhibitors (prepared as reported by Rojas, M. G. and Morales-Ramos, J. A., Apr. 2001, “Bait matrix for delivery of chitin synthesis inhibitors to the Formosan subterranean termite [Isoptera: Rhinotermitidae],” J. Econ. Entomol. 94(2):506-510). The tube was tightly closed with a screw cap and manually shaken for 30 seconds. The mixture was added to 100 g of sterile cellulose as reported by Rojas and Morales-Ramos (2001) supra. The cotton seed oil was mixed with 300 ml of supplement and mixed with the sterile cellulose. The cotton seed meal was mixed and homogenized with the sterile cellulose, and then the 300 ml nutritional supplement was added. Each mixture was manually homogenized using a stainless steel spatula.
The mixtures were prepared as reported above for gossypol-chitin inhibitors, but without the addition of the chitin inhibitors. The fungal spores (400 mg) (Bio-Blast, EcoScience, Orlando, Fla.) were homogenized with the sterile cellulose, then the 300 ml of supplement gossypol-containing solution was added.
To encase the bait matrix, tubes made of fibrous casing material (#124B; L. E. M. Products, Inc., Miamitown, Ohio) were cut into 150 mm long portions as reported by Rojas and Morales-Ramos (2001) supra. Fifty grams of bait matrix containing a mixture of a single gossypol source and a single chitin synthesis inhibitor, or single gossypol source and fungal spores, were compacted into one end of the inlet tube, at which point the open end of the inlet tube was closed with a rubber band. The bait casing was placed inside of the foraging box adjacent to a 10 g piece of pine wood, taking care that they were partially covered with the sand. […]
All the experimental boxes were maintained under dark at 29±2° C., and 75±2% relative humidity. […] The time to reach 100% mortality was measured and recorded. […]

The test system of a further data set is bollworms. Conditions: 0.15% gossypol in an artificial diet; regular diet 54.5%; cited from earlier work.
Another data set deals with tobacco budworms. To be noted: cited from earlier work.
Data set [4] deals with cotton leafworm (Spodoptera littoralis [Boisduval]). To be noted: cited from earlier work.
Data set [5] relates to silverleaf whitefly (Bemisia argentifolii Bellows and Perring). Conditions: in vivo; cited from earlier work.
In data set [6] the test system is tobacco budworm neonate larvae. To be noted: nine days, cited from earlier work.
In another data set the test system is protease. To be noted: cotton leafworm (S. littoralis); cited from earlier work.
The subject of data set [7] is Spiny bollworm (Earias insulana Boisduval). Conditions: cited from earlier work.
A further data set has as its system invertase. Conditions: cotton leafworm (S. littoralis); cited from earlier work.
In the next data set the test system is amylase. To be noted: cotton leafworm (S. littoralis); cited from earlier work.
The test system of a further data set is ants. To be noted: as recommended by manufacturers; cited from earlier work.
For another data set, the system named is subterranean termites. Conditions: as recommended by manufacturers; cited from earlier work.

As to `COc1c(O)c(C=O)c2c(c1C(C)C)C(=O)C(C)=CC2=O` [Hemigossypolone-6-methyl ether], the effect on growth result in data set [1] is “no effect on growth”.
In the case of `C=C1CC[C@H]2O[C@]2(C)CC[C@@H]2[C@@H]1CC2(C)C` [caryophyllene oxide], the “interaction with gossypol in retarding larval growth” value in data set [2] was “interacts synergistically”.
Turning to `O=C(NC(=O)c1c(F)cccc1F)Nc1cc(Cl)c(Oc2ncc(C(F)(F)F)cc2Cl)c(Cl)c1` [chlorfuazuron], the lethal amount result in [3] is given as “about 0.5%”.
On to `O=C(NC(=O)c1c(F)cccc1F)Nc1ccc(Cl)cc1` [diflubenzuron], for which the lethal amount result in [3] was “about 0.250%”.
Take `N#Cc1nn(-c2c(Cl)cc(C(F)(F)F)cc2Cl)c(N)c1[S+]([O-])C(F)(F)F` (stereo not drawn) [fipronil]: in the data set with roaches, the lethal amount entry is on record as “about 0.05%”.
Consider `CC(=O)O.Cc1cc2c(C(C)C)c(O)c(O)c(C=O)c2c(O)c1-c1c(C)cc2c(C(C)C)c(O)c(O)c(C=O)c2c1O` [gossypol acetic acid complex, Gossypol acetic acid complex], for which the “mean time to kill the lab test” value in the data set with termites (5 ppm, mixed with a chitin synthesis inhibitor of the benzophenyl urea family or microbes) is on record as “four”. Besides, in the data set with termites (500 ppm, not mixed with any other chemicals, fungi, or bacteria), the “time to mortality of a 1000-worker colony” value is “about 2.5 weeks”. Moreover, the “mean duration to kill the lab test colony” value in the data set on termites (concentrations greater than 500 ppm, without any other chemical) is listed as “one”. Besides, the “dose sufficient to weaken the termites and allow other chemicals or microorganisms to induce mortality” value with termites (preliminary results, doses from 5 to 500 ppm, mortality in about two months, no signs of repellency) worked out at 100 ppm.
Take `Cc1cc2c(C(C)C)c(O)c(O)c(C=O)c2c(O)c1-c1c(C)cc2c(C(C)C)c(O)c(O)c(C=O)c2c1O` [gossypol]: the food utilization is on record as 42.5% in the data set on bollworms and “did not measurably affect food utilization” in the data set on tobacco budworms (gossypol at the 0.15% level). Besides, in the data set with tobacco budworms (gossypol 0.30%, 5- and 8-day-old larvae), the food consumption result is “impaired”. Further, the mortality in data set [4] (0.5% gossypol in the diet, after 10 days) is on record as ~70%; in data set [5], “did not affect”. In data set [4] (0.5% gossypol in the diet), the larvae eventually pupated is reported as 0.3%. Further, the feeding entry in data set [4] (1.0% gossypol in the diet) is reported as “strongly suppressed feeding”. Moreover, the honeydew production result in data set [5] is “did not affect”. Further, in data set [6] (0.02% gossypol in artificial diet), the “larval size relative to control” value is listed as 98%. Besides, the “larval weight relative to controls” value was 63% in [6] (0.06% gossypol in the diet) and 13% in data set [6] (0.2% gossypol in the diet). Moreover, the protease activity entry with protease was “inhibits”. The “time until experimental colonies were dead” value in the data set with termites (gossypol with the chitin inhibitor in bait matrix, control boxes (no gossypol) still alive) was “about two”. The pupated in [7] (bolls containing 0.58% gossypol) is recorded as 45%; in data set [7] (bolls containing 2.34% gossypol), 9%. The invertase activity result in the data set on invertase is on record as “does not affect”. The “effective dosage required to reduce by 50% the growth of larvae” value in data set [1] is reported as 0.8 μmoles/g diet. In the data set with amylase, the amylase activity result was “inhibits”.
`COc1c(O)c(C=O)c2c(c1C(C)C)C(=O)C1(C)CC=C(C)C(CC=C(C)C)C1C2=O` (stereo not drawn) [heliocide B1]: in [1], the “effective dosage required to reduce by 50% the growth of larvae” value is listed as 4.6 μmoles/g diet.
With `COc1c(O)c(C=O)c2c(c1C(C)C)C(=O)C1(C)CC=C(CCC=C(C)C)CC1C2=O` (stereo not drawn) [heliocide B2], the effect on growth entry in data set [1] is listed as “no effect on growth”.
For `COc1c(O)c(C=O)c2c(c1C(C)C)C(=O)C1(C)CC(CCC=C(C)C)=CCC1C2=O` (stereo not drawn) [heliocide B3], the effect on growth entry in data set [1] is recorded as “no effect on growth”.
Consider `CC(C)=CCC1C(C)=CCC2(C)C(=O)c3c(c(C=O)c(O)c(O)c3C(C)C)C(=O)C12` (stereo not drawn) [heliocide H1], for which the “effective dosage required to reduce by 50% the growth of larvae” value in data set [1] is reported as 2.5 μmoles/g diet.
For `CC(C)=CCCC1=CC[C@]2(C)C(=O)c3c(c(C=O)c(O)c(O)c3C(C)C)C(=O)[C@@H]2C1` [heliocide H2], in data set [1], the “effective dosage required to reduce by 50% the growth of larvae” value is reported as 11.2 μmoles/g diet.
Consider `CC(C)=CCCC1=CC[C@H]2C(=O)c3c(C=O)c(O)c(O)c(C(C)C)c3C(=O)[C@@]2(C)C1` [heliocide H3], for which the “effective dosage required to reduce by 50% the growth of larvae” value in [1] is reported as 3.9 μmoles/g diet.
Turning to `CC1=CC(=O)c2c(C=O)c(O)c(O)c(C(C)C)c2C1=O` [hemigossypolone], the “effective dosage required to reduce by 50% the growth of larvae” value in data set [1] is listed as 10.5 μmoles/g diet.
Consider `O=C(NC(=O)c1c(F)cccc1F)Nc1cc(Cl)c(OC(F)(F)C(F)F)c(Cl)c1` [hexaflumuron], for which the lethal amount entry in [3] is “about 0.5%”.
`CC1(C)CNC(=NN=C(/C=C/c2ccc(C(F)(F)F)cc2)/C=C/c2ccc(C(F)(F)F)cc2)NC1` [hydramethylnon]: the lethal amount entry in the data set on ants is “about 1.0%”; with subterranean termites it was “about 0.030%”.
Regarding `O=[N+]([O-])NC1=NCCN1Cc1ccc(Cl)nc1` [imidacloprid], the lethal amount result in the data set on roaches is reported as “about 2.15%”.
As for caryophyllene, in data set [2], the “interaction with gossypol in retarding larval growth” value is listed as “does not act synergistically”.
